Columns and labels:
[1] = system: swimming endurance in forced swimming; assay: Swimming endurance test; assay type: in vivo, mice; settings: propionyl L-carnitine 200 mg/kg, IP6 100 mg/kg, oral on the three days preceding the test
Procedure: Since IP6, which is rich in phosphate groups, is a useful energy reserve, a series of tests were performed to establish whether its administration may increase the swimming endurance time in mice submitted to forced swimming in a rectangular tank full of water, according to the technique described by Zheng (Zheng R. L., Acta Pharmacol. Sinica, 14:47, 1993) and whether its effect could be enhanced by using it in combination with a carnitine, such as, for instance, propionyl L-carnitine. The tests were performed on various groups of animals treated with propionyl L-carnitine (200 mg/kg) or with IP6 (100 mg/kg) alone or with the two compounds in combination. The compounds were administered orally on the three days preceding the test. In the animals thus treated, swimming endurance time was measured as compared to control animals.

[2] = system: collagen-induced type II arthritis; assay: Collagen-induced arthritis test; assay type: in vivo; settings: mice; 200 mg/kg each, oral, from day of collagen injection to end of sixth week; oedema scores 1 to 4
Procedure: Confirmation of the anti-inflammatory effects of the composition according to the invention was obtained using as a test collagen-induced type II arthritis according to the technique described by […]. Exp. Med., 146:857, 1977). In this test, a group of mice were immunised by intradermal injection at the base of the tail of 100 μg of natural collagen emulsified in Freund complete adjuvant (Difco Labs., Detroit, USA). After three weeks, the animals thus treated were again injected intraperitoneally with the same dose of emulsified collagen. The treatment with propionyl […] (200 mg/kg) or with inositol hexaphosphate (200 mg/kg) or with the two compounds in combination was administered orally from the day of collagen injection up to the end of the sixth week. One group of animals received no treatment and served as a control group. The intensity of the oedema was assessed by assigning scores from 1 to 4.

[3] = system: platelets from healthy volunteers; assay: Anti-platelet aggregation activity (collagen-induced, Born method); assay type: cell-based, human; settings: collagen 2.5 and 5 ng/mL, 10 min incubation, IP6 4 and 8 ng/mL
Procedure: The anti-platelet-aggregation activity of the composition according to the invention was assessed in blood samples from healthy volunteers. […] The aggregating agent used was collagen (2.5 ng/mL, 5 ng/mL) and the aggregation induced was measured photometrically according to the method described by Born (Born G. V., Nature, 194:927, 1962). […] The doses of propionyl L-carnitine used were 10 ng and 20 ng/mL, while the IP6 doses were 4 ng and 8 ng/mL.

[4] = system: muscle lipoperoxidation (malondialdehyde); assay: Muscle fatigue test, forced muscular exercise on moving belt, MDA in gastrocnemius muscle; assay type: in vivo, rats; settings: propionyl L-carnitine 200 mg/kg, IP6 100 mg/kg, three days before exercise; for MDA content in muscle after 5 min: gastrocnemius muscle 5 min after end of exercise; for MDA content in muscle after 30 min: gastrocnemius muscle 30 min after end of exercise
Procedure: Forced muscular exercise was tested in various groups of rats by making them run on a moving belt at controlled speed and angle of tilt, as described by Li (Li J. X., Acta Pharmacologica Sinica, 20:126, 1999) and Husain (Husain K., Pathophysiology, 4:69, 1997). The animals were made to run on an approximately 5° slope and at a belt speed of 28 m/min. The animals' stamina reached the point of exhaustion after approximately 85 min of exercise. The test was carried out in groups of animals which, during the three days preceding exercise, received 200 mg/kg of propionyl L-carnitine or 100 mg/kg of IP6 alone or in combination. Five and thirty minutes, respectively, after the end of exercise, samples of gastrocnemius muscle were taken from the sacrificed animals and used for measuring the malondialdehyde (MDA) content as a marker for the level of lipoperoxidation by means of reaction with thiobarbituric acid according to the method described by Ohkawa (Ohkawa H., Anal. Biochem., 95:351, 1979).

[5] = system: carrageenin-induced oedema of the rat paw; assay: Carrageenin oedema test; assay type: in vivo; settings: 250 mg/kg each, oral
Procedure: To assess the anti-inflammatory effect of the new composition the carrageenin oedema test was used, in which rat paws are injected with carrageenin. The injection of 0.1 mL of 1% carrageenin solution (Sigma Chemical, St. Louis, Mo., USA) in the subplantar area of the rat's right paw induced marked oedema of the paw which reached its maximum intensity 4-5 hours after injection. The oedema was measured by mercury plethysmography at various different time intervals up to the fourth hour after carrageenin injection. Both propionyl L-carnitine (250 mg/kg) and IP6 (250 mg/kg) were administered orally half an hour prior to the subplantar carrageenin injection.

ornithine decarboxylase = assay: Antiproliferative activity, teleocidin-induced ornithine decarboxylase in epidermis; assay type: in vivo, mice
[6] = system: atherosclerotic vascular lesions of the abdominal aorta; assay: Anti-atherosclerotic activity, atherogenic diet; assay type: in vivo, male Wistar rats; settings: rats; atherogenic diet six weeks; daily 150 mg/kg propionyl carnitine, 100 mg/kg IP6
Procedure: […] according to the regimen proposed by Melinow (Melinow M. R., Atherosclerosis, 48:105, 1983). At the end of the sixth week of treatment, marked atherosclerotic vascular lesions had formed which were particularly pronounced at the abdominal aorta level. The severity of these lesions was evaluated by a morphometric method, measuring the thickness of the abdominal aorta and the intensity of the staining induced by Sudan IV with a progressive scoring system from 1 to 5. In these tests, the rats received daily administrations of 150 mg/kg of propionyl carnitine and 100 mg/kg of IP6, together with their atherogenic diets.

chick cerebral neurons = assay: Neuronal hypoxia, NaCN-induced, ATP assay; assay type: cell-based; settings: propionyl L-carnitine 100 mg/L, IP6 50 mg/L; for ATP after reoxygenation time 0 / ATP after reoxygenation time 30 min: NaCN 1 mmol/L for 120 min; for ATP after reoxygenation time 0: reoxygenation 0; for ATP after reoxygenation time 30 min: reoxygenation 30 min
Procedure: To assess the protective activity of the composition according to the invention on hypoxia-induced damage at the neuronal level, tests were performed on cultures of chick cerebral neurons in which the reduction in cell respiration was induced by introducing NaCN into the cultures. […] The chick cerebral neuron cultures were prepared according to the technique described by […]., Nature, 281:378, 1979). Cytotoxic hypoxia was induced by adding NaCN to the culture medium to a final concentration of 1 mmol/L. After 120 min the medium was replaced by an NaCN-free medium, and the metabolism of the cells was blocked by washing with an iced buffer solution. The ATP assay was performed according to the procedure described by Werner (Werner A. J., Chromatogr. Biomed. Appl., 421:257, 1987).

[7] = rat paw oedema, half an hour before carrageenin
[8] = mouse epidermis 5 h after teleocidin 5 μg/mouse s.c., oral pretreatment propionyl L-carnitine 200 mg/kg, IP6 100 mg/kg

Compound: O=P(O)(O)O[C@H]1[C@H](OP(=O)(O)O)[C@@H](OP(=O)(O)O)[C@H](OP(=O)(O)O)[C@@H](OP(=O)(O)O)[C@H]1OP(=O)(O)O [IP6, inositol hexaphosphate]
- Swimming time [1]: 136 ± 16 min
- mean swimming endurance time versus controls (in words) [1]: slightly increased
- oedema inhibition [2]: approximately 20%
- aggregating action of collagen, reduced to [3]: 40%
- MDA content in muscle after 5 min [4]: 200 ± 16 nmol/g (WW)
- MDA content in muscle after 30 min [4]: 205 ± 8 nmol/g (WW)
- muscle lipoperoxidation in muscle homogenate (in words) [4]: capable of reducing the levels of muscle lipoperoxidation
- % inhibition after 1 h ([5]; rat paw oedema, half an hour before carrageenin, 1 h): 15 ± 1.1%
- % inhibition after 2 h [5, 7]: 20 ± 2.1%
- % inhibition after 4 h [5, 7]: 15 ± 0.6%
- inhibitory action on the inflammatory reaction induced by carrageenin (in words) ([5]; rat): slight inhibitory action
- Ornithine decarboxylase activity (ornithine decarboxylase; [8]): 1.95 ± 0.2 nMol of CO2/60 min/mg protein
- reduction of the teleocidin-induced increase in ornithine decarboxylase activity (in words) (ornithine decarboxylase; oral pretreatment propionyl L-carnitine 200 mg/kg, IP6 100 mg/kg): significantly reduced
- protective effect against atherosclerotic lesions (morphometric examination and Sudan IV staining) [6]: only a slight protective effect
- ATP after reoxygenation time 0 (chick cerebral neurons): 12.4 ± 2.1 nmol g protein
- ATP after reoxygenation time 30 min (chick cerebral neurons): 16.9 ± 1.9 nmol g protein
- ATP levels after anoxia and reoxygenation (in words) (chick cerebral neurons; NaCN 1 mmol/L): a lesser reduction of ATP levels is observed as well as more rapid restoration of ATP levels

Compound: CCC(=O)OC(CC(=O)[O-])C[N+](C)(C)C [Propionyl L-carnitine, propionyl L-carnitine]
- Swimming time [1]: 116 ± 19 min
- oedema inhibition [2]: no inhibitory effect
- inhibition of the aggregating action of collagen ([3]; propionyl L-carnitine 10 and 20 ng/mL): does not inhibit
- MDA content in muscle after 5 min [4]: 210 ± 10 nmol/g (WW)
- MDA content in muscle after 30 min [4]: 212 ± 14 nmol/g (WW)
- % inhibition after 2 h [5, 7]: 15 ± 0.3%
- % inhibition after 4 h [5, 7]: 8 ± 0.9%
- Ornithine decarboxylase activity (ornithine decarboxylase; [8]): 2.1 ± 0.2 nMol of CO2/60 min/mg protein
- ATP after reoxygenation time 0 (chick cerebral neurons): 11.1 ± 1.6 nmol g protein
- ATP after reoxygenation time 30 min (chick cerebral neurons): 16.3 ± 2.2 nmol g protein

Compound: teleocidin
- Ornithine decarboxylase activity (ornithine decarboxylase; mouse epidermis 5 h after teleocidin 5 μg/mouse s.c. alone, no pretreatment): 2.6 ± 0.4 nMol of CO2/60 min/mg protein

Source: US6565876B1, “Carnitine and inositol phosphate-containing composition useful as dietary supplement or drug” (Sigma-Tau HealthScience S.p.A., priority 1999, dated 2003)
